Laboratory results reported in patent US20210009564A1, “CALPAIN MODULATORS AND THERAPEUTIC USES THEREOF” (BLADE THERAPERTICS, INC., priority 2018, published 2021).

Columns and labels:
[1] = system: Calpain activity in SH-SY5Y cells; assay: SH-SY5Y spectrin breakdown product (SBDP-150) western blot assay; type: cell-based; settings: Homo sapiens, read-out: SH-SY5Y Spectrin IC50
[2] = target: T1, Human Calpain 2/NS1 (Homo sapiens, UniProt P17655); assay: Calpain inhibition, continuous fluorescence (FRET substrate) assay, calpain 2; type: biochemical; settings: SensoLyte 520 FRET substrate, 25C
T1 sequence (P17655 1-700): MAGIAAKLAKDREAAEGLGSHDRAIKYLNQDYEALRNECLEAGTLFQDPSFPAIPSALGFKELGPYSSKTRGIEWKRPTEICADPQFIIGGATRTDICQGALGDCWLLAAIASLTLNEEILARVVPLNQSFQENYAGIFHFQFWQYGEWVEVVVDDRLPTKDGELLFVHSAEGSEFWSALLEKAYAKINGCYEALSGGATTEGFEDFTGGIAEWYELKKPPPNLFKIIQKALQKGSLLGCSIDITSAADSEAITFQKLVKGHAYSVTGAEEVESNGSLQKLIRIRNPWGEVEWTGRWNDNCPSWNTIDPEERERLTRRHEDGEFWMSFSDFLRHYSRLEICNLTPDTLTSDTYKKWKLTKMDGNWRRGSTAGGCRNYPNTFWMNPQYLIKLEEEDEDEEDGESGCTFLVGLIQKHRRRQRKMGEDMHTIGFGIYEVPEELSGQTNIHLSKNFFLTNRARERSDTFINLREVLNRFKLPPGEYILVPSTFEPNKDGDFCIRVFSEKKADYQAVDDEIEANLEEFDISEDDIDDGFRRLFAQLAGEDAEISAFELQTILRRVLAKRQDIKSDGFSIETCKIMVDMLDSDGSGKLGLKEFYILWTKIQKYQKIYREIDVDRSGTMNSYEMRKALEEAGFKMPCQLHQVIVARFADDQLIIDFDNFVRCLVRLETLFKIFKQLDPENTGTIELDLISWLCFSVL
T1 sequence (P04632 1-268 partner): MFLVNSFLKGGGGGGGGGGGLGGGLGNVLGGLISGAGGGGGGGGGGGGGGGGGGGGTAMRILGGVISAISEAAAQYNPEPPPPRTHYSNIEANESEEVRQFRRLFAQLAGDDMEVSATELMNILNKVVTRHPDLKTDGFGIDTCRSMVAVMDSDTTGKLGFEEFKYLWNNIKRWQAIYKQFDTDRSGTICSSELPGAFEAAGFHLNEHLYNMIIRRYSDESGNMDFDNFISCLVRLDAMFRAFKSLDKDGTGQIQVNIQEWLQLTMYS
Outline: (§1)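 Continuous FRET read-out (ex 490/em 520 nm) of 5-FAM/QXL 520 substrate cleavage, started by adding substrate with CaCl2 for in-situ activation after enzyme–inhibitor preincubation at 25 °C. Buffer was Tris 50 mM pH 7.5, NaCl 100 mM, DTT 1 mM. IC50 fitted (4-parameter) from rates over 1-5 min.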

[3] = system: Calpain activity in SH-SY5Y cells; assay: SH-SY5Y Suc-LLVY-AMC fluorescence assay; type: cell-based; settings: Homo sapiens, read-out: SH-SY5Y + AMC IC50
[4] = target: T2, Human Calpain 1/NS1 (Homo sapiens, UniProt P07384); assay: Calpain inhibition, continuous fluorescence (FRET substrate) assay, calpain 1; type: biochemical; settings: SensoLyte 520 FRET substrate, 25C
T2 sequence (P07384 1-714): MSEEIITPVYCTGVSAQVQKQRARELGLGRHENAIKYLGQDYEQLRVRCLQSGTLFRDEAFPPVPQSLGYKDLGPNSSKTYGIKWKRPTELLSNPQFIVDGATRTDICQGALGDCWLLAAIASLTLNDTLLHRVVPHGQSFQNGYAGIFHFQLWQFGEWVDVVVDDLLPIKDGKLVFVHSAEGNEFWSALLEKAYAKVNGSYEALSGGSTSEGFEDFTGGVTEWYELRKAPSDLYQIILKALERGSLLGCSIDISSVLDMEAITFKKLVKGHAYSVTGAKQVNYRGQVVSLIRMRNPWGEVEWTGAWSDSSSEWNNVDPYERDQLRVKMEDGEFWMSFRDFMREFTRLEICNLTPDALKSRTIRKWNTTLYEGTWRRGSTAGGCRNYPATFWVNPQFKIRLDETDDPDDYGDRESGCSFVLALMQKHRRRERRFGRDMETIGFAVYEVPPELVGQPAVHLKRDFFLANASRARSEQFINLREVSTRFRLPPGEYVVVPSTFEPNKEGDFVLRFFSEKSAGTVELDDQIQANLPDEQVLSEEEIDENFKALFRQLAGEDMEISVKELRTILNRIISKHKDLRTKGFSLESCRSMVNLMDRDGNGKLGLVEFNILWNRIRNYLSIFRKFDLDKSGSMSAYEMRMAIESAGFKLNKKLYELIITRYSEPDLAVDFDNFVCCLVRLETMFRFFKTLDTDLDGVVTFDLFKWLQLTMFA
T2 sequence (P04632 1-268 partner): T1 sequence (P04632 1-268 partner)
Outline: as §1

[5] = target: T3, Human Calpain 9/NS1 (Homo sapiens, UniProt O14815); assay: Calpain inhibition, continuous fluorescence (FRET substrate) assay, calpain 9; type: biochemical; settings: SensoLyte 520 FRET substrate, 25C
T3 sequence (O14815 1-690): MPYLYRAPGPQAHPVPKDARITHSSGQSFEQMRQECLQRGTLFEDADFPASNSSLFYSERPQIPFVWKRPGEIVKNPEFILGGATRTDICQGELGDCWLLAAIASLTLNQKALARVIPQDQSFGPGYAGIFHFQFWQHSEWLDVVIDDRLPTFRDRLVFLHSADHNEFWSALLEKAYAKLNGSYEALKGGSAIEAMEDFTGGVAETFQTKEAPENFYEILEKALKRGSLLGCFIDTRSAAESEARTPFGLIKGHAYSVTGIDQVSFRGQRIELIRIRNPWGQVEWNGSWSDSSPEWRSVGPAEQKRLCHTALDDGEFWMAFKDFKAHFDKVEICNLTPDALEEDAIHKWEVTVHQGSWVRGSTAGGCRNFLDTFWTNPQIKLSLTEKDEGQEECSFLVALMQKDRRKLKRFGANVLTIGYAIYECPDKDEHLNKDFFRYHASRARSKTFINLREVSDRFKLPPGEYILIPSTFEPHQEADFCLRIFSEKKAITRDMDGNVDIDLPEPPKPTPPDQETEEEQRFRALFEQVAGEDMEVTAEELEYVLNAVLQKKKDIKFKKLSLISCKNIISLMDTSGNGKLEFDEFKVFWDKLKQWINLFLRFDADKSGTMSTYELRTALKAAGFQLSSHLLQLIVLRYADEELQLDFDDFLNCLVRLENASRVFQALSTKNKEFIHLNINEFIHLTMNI
T3 sequence (P04632 1-268 partner): T1 sequence (P04632 1-268 partner)
Outline: as §1

[6] = SH-SY5Y cells, 25 uM A23187, SBDP-150 western blot
[7] = SH-SY5Y cells, 100 uM Suc-LLVY-AMC

SMILES	IC50 ([1]; SH-SY5Y)	IC50 [2]	IC50 ([3]; SH-SY5Y)	IC50 [4]	IC50 [5]	IC50 [1, 6]	IC50 [3, 7]
Cc1cc(C(=O)NC(Cc2ccccc2)C(=O)C(N)=O)nn1-c1ncc(-c2ccccc2)cn1 (stereo not drawn) [Compound 29, N-(4-AMINO-3,4-DIOXO-1-PHENYLBUTAN-2-YL)-5-METHYL-1-(5-PHENYLPYRIMIDIN-2-YL)-1H-PYRAZOLE-3-CARBOXAMIDE]	> 25 µM	< 3 µM	< 10 µM	3 to 10 µM	3 to 10 µM		
Cc1cc(C(=O)NC(Cc2ccccc2)C(=O)C(N)=O)n(-c2ncc(-c3ccccc3)cn2)n1 (stereo not drawn) [Compound 30, N-(4-AMINO-3,4-DIOXO-1-PHENYLBUTAN-2-YL)-3-METHYL-1-(5-PHENYLPYRIMIDIN-2-YL)-1H-PYRAZOLE-5-CARBOXAMIDE]	< 10 µM	< 3 µM	> 25 µM	< 3 µM	< 3 µM		
Cn1cc(C(=O)NC(Cc2ccccc2)C(=O)C(N)=O)c(-c2cccc3ncoc23)n1 (stereo not drawn) [Compound 31, N-(4-AMINO-3,4-DIOXO-1-PHENYLBUTAN-2-YL)-3-(BENZO[D]OXAZOL-7-YL)-1-METHYL-1H-PYRAZOLE-4-CARBOXAMIDE]		< 3 µM		< 3 µM	< 3 µM	< 10 µM	< 10 µM
Cn1cc(C(=O)NC(Cc2ccccc2)C(=O)C(N)=O)c(-c2cccc3c2cnn3C)n1 (stereo not drawn) [Compound 32, N-(4-AMINO-3,4-DIOXO-1-PHENYLBUTAN-2-YL)-1-METHYL-3-(1-METHYL-1H-INDAZOL-4-YL)-1H-PYRAZOLE-4-CARBOXAMIDE]		< 3 µM		< 3 µM	< 3 µM	10 to 25 µM	10 to 25 µM
Cn1ncc2cccc(-c3nn(C(F)F)cc3C(=O)NC(Cc3ccccc3)C(=O)C(N)=O)c21 (stereo not drawn) [Compound 34, N-(4-AMINO-3,4-DIOXO-1-PHENYLBUTAN-2-YL)-1-(DIFLUOROMETHYL)-3-(1-METHYL-1H-INDAZOL-7-YL)-1H-PYRAZOLE-4-CARBOXAMIDE]		< 3 µM		< 3 µM	< 3 µM	10 to 25 µM	< 10 µM
Cn1cc(C(=O)NC(Cc2ccccc2)C(=O)C(N)=O)c(-c2cccc3oc(=O)[nH]c23)n1 (stereo not drawn) [Compound 35, N-(4-AMINO-3,4-DIOXO-1-PHENYLBUTAN-2-YL)-1-METHYL-3-(2-OXO-2,3-DIHYDROBENZO[D]OXAZOL-4-YL)-1H-PYRAZOLE-4-CARBOXAMIDE]		< 3 µM		< 3 µM	< 3 µM	< 10 µM	< 10 µM
NC(=O)C(=O)C(Cc1ccccc1)NC(=O)c1cn(C(F)F)nc1-c1cc(Cl)oc1Cl (stereo not drawn) [Compound 36, N-(4-AMINO-3,4-DIOXO-1-PHENYLBUTAN-2-YL)-3-(2,5-DICHLOROFURAN-3-YL)-1-(DIFLUOROMETHYL)-1H-PYRAZOLE-4-CARBOXAMIDE]		< 3 µM		< 3 µM	< 3 µM	< 10 µM	< 10 µM
COc1cc2nccc(-c3nn(C)cc3C(=O)NC(Cc3ccccc3)C(=O)C(N)=O)c2cc1OC (stereo not drawn) [Compound 37, N-(4-AMINO-3,4-DIOXO-1-PHENYLBUTAN-2-YL)-3-(6,7-DIMETHOXYQUINOLIN-4-YL)-1-METHYL-1H-PYRAZOLE-4-CARBOXAMIDE]		< 3 µM		< 3 µM	< 3 µM	> 25 µM	> 25 µM
COC(=O)C(=O)C(Cc1ccccc1)NC(=O)c1nsnc1-c1ccccc1 (stereo not drawn) [Compound 38, METHYL 2-OXO-4-PHENYL-3-(4-PHENYL-1,2,5-THIADIAZOLE-3-CARBOXAMIDO)BUTANOATE]		< 3 µM		< 3 µM	< 3 µM	< 10 µM	< 10 µM
Cn1cc(C(=O)NC(Cc2ccccc2)C(=O)C(N)=O)c(-c2cccc3cn[nH]c23)n1 (stereo not drawn) [Compound 39, N-(4-AMINO-3,4-DIOXO-1-PHENYLBUTAN-2-YL)-3-(1H-INDAZOL-7-YL)-1-METHYL-1H-PYRAZOLE-4-CARBOXAMIDE]		< 3 µM		< 3 µM	< 3 µM	< 10 µM	10 to 25 µM
COC(=O)C(=O)C(Cc1ccccc1)NC(=O)c1cn(C)nc1-c1ccccc1F (stereo not drawn) [Compound 40, METHYL 3-(3-(2-FLUOROPHENYL)-1-METHYL-1H-PYRAZOLE-4-CARBOXAMIDO)-2-OXO-4-PHENYLBUTANOATE]		< 3 µM		< 3 µM	< 3 µM	> 25 µM	< 10 µM
COC(=O)C(=O)C(Cc1ccccc1)NC(=O)c1cn(C2CC2)nc1-c1ccccc1 (stereo not drawn) [Compound 41, METHYL 3-(1-CYCLOPROPYL-3-PHENYL-1H-PYRAZOLE-4-CARBOXAMIDO)-2-OXO-4-PHENYLBUTANOATE]		< 3 µM		< 3 µM	< 3 µM	> 25 µM	< 10 µM
COC(=O)C(=O)C(Cc1ccccc1)NC(=O)c1oc(C)nc1-c1ccccc1F (stereo not drawn) [Compound 42, METHYL 3-(4-(2-FLUOROPHENYL)-2-METHYLOXAZOLE-5-CARBOXAMIDO)-2-OXO-4-PHENYLBUTANOATE]		< 3 µM		< 3 µM	< 3 µM	< 10 µM	< 10 µM
Cc1cc(C(=O)NC(Cc2ccccc2)C(=O)C(N)=O)n(-c2nccc(-c3ccccc3)n2)n1 (stereo not drawn) [Compound 45, N-(4-AMINO-3,4-DIOXO-1-PHENYLBUTAN-2-YL)-3-METHYL-1-(4-PHENYLPYRIMIDIN-2-YL)-1H-PYRAZOLE-5-CARBOXAMIDE]	10 to 25 µM	< 3 µM	< 10 µM	< 3 µM	< 3 µM		
Cc1occc1-c1nsnc1C(=O)NC(Cc1ccccc1)C(=O)C(N)=O (stereo not drawn) [Compound 46, N-(4-AMINO-3,4-DIOXO-1-PHENYLBUTAN-2-YL)-4-(2-METHYLFURAN-3-YL)-1,2,5-THIADIAZOLE-3-CARBOXAMIDE]		< 3 µM		< 3 µM	< 3 µM	< 10 µM	< 10 µM
